Laboratory results taken from US9822069B2, “Urea derivative or pharmacologically acceptable salt thereof” (KYORIN PHARMACEUTICAL CO. LTD., priority 2013, dated 2017).

target: T1, human FPRL1 (Homo sapiens, UniProt P25090); assay: Measurement test of agonist activity on human FPRL1 (test of calcium mobilization in cell, HEK293 with human FPRL1 and Gα15 expression vectors); type: cell-based; settings: calcium mobilization in HEK293 cells with human FPRL1 and Gα15 expression vectors
T1 construct: expressed in transfected cells; host or cells: HEK293 (JCRB9068, NIBIO), transient transfection with pCMV-script vectors using Lipofectamine 2000
T1 sequence (P25090 1-351): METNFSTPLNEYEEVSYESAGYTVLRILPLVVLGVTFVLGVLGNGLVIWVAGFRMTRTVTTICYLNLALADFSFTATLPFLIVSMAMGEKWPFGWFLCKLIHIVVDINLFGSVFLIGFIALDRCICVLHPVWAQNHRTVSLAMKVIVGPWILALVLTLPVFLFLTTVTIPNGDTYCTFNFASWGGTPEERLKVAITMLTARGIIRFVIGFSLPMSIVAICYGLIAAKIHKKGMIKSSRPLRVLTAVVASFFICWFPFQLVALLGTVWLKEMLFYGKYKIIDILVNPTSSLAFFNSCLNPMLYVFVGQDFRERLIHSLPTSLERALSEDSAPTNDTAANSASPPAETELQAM
In short: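 HEK293 transiently co-transfected with human FPRL1 and Gα15, plated 24 h before assay, loaded with Fluo-4 NW dye plus probenecid. Compounds in eight 10-fold dilutions (DMSO stocks 10^−2 to 10^−9 M, then diluted 100-fold in assay buffer); calcium mobilization read on Flexstation for EC50.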

SMILES | EC50 [nM]
Cc1nnc(CN2C[C@@H](c3cc4c(cc3F)OCC4)[C@H](NC(=O)Nc3ccc(F)cc3)C2=O)o1 (single isomer, unassigned) [EXAMPLE 24-24, (−)-1-{(3S*,4R*)-4-(6-fluoro-2,3-dihydrobenzofuran-5-yl)-1-[(5-methyl-1,3,4-oxadiazol-2-yl)methyl]-2-oxopyrrolidin-3-yl}-3-(4-fluorophenyl)urea] | 0.46
COc1cc(F)c([C@@H]2CN(CCO)C(=O)[C@H]2NC(=O)Nc2ccccc2)c(F)c1 (relative stereo) [Example 24-6, (−)-1-[(3S*,4R*)-4-(2,6-difluoro-4-methoxyphenyl)-1-(2-hydroxyethyl)-2-oxopyrrolidin-3-yl]-3-phenylurea] | 0.4
O=C(Nc1ccc(Cl)cc1)N[C@H]1C(=O)NC[C@@H]1c1ccccc1 (relative stereo) [Example 1-43, (+)-1-(4-chlorophenyl)-3-[(3R*,4S*)-2-oxo-4-phenylpyrrolidin-3-yl]urea] | 5.13
O=C(Nc1ccc(F)cc1)N[C@@H]1C(=O)NC[C@H]1c1cc2ccoc2cc1F (relative stereo) [Example 1-77, (−)-1-[(3S*,4R*)-4-(6-fluorobenzofuran-5-yl)-2-oxopyrrolidin-3-yl]-3-(4-fluorophenyl)urea] | 5.2
COc1cc(F)c([C@@H]2CN/C(=N\OCCO)[C@H]2NC(=O)Nc2cc3ccccc3s2)c(F)c1 (single isomer, unassigned) [EXAMPLE 32-15, (−)-1-(benzo[b]thiophen-2-yl)-3-{(3S*,4R*,Z)-4-(2,6-difluoro-4-methoxyphenyl)-2-[(2-hydroxyethoxy)imino]pyrrolidin-3-yl}urea] | 0.27
O=C(O)CN1C[C@@H](c2cc3c(cc2F)OCC3)[C@H](NC(=O)Nc2ccc(F)cc2)C1=O (relative stereo) [Example 16-3, (−)-2-{(3S*,4R*)-4-(6-fluoro-2,3-dihydrobenzofuran-5-yl)-3-[3-(4-fluorophenyl)ureido]-2-oxopyrrolidin-1-yl}acetic acid] | 0.75
COc1cc(F)c([C@@H]2CN/C(=N\O)[C@H]2NC(=O)Nc2ccc(F)cc2)c(F)c1 (single isomer, unassigned) [EXAMPLE 33-2, (−)-1-((3S*,4R*,Z)-4-(2,6-Difluoro-4-methoxyphenyl)-2-(hydroxyimino)pyrrolidin-3-yl)-3-(4-fluorophenyl)urea] | 0.03
COc1cc(F)c([C@@H]2CN(C)C(=O)[C@H]2NC(=O)Nc2cc3ccccc3s2)c(F)c1 (relative stereo) [Example 24-5, (−)-1-(benzo[b]thiophen-2-yl)-3-[(3S*,4R*)-4-(2,6-difluoro-4-methoxyphenyl)-1-methyl-2-oxopyrrolidin-3-yl]urea] | 1.6
CO/N=C1\NC[C@@H](c2ccc(OC)cc2F)[C@@H]1NC(=O)Nc1ccc(F)cc1 (single isomer, unassigned) [EXAMPLE 32-2, (−)-1-[(3S*,4R*,Z)-4-(2-fluoro-4-methoxyphenyl)-2-(methoxyimino)pyrrolidin-3-yl]-3-(4-fluorophenyl)urea] | 0.03
COc1cc(F)c([C@@H]2CN(CS(N)(=O)=O)C(=O)[C@H]2NC(=O)Nc2ccc(F)cc2)c(F)c1 (relative stereo) [Example 24-15, (−)-{(3S*,4R*)-4-(2,6-difluoro-4-methoxyphenyl)-3-[3-(4-fluorophenyl)ureido]-2-oxopyrrolidin-1-yl}methanesulfonamide] | 0.03
COc1cc(F)c([C@@H]2CNC(=O)[C@H]2NC(=O)Nc2cc3ccccc3s2)c(F)c1 (relative stereo) [Example 1-35, (−)-1-(benzo[b]thiophen-2-yl)-3-[(3S*,4R*)-4-(2,6-difluoro-4-methoxyphenyl)-2-oxopyrrolidin-3-yl]urea] | 0.76
COc1cc(F)c([C@@H]2CNC(=O)[C@H]2NC(=O)Nc2ccc(F)c(F)c2)c(F)c1 (relative stereo) [Example 7-9, (−)-1-[(3S*,4R*)-4-(2,6-difluoro-4-methoxyphenyl)-2-oxopyrrolidin-3-yl]-3-(3,4-difluorophenyl)urea] | 0.16
COc1ccc([C@@H]2CN(C(C)(C)CO)C(=O)[C@H]2NC(=O)Nc2ccc(F)cc2)cc1 (relative stereo) [Example 12-4, (−)-1-(4-fluorophenyl)-3-[(3S*,4R*)-1-(1-hydroxy-2-methylpropan-2-yl)-4-(4-methoxyphenyl)-2-oxopyrrolidin-3-yl]urea] | 0.05
COc1ccc([C@@H]2[C@H](C)NC(=O)[C@H]2NC(=O)Nc2ccc(F)cc2)cc1 (relative stereo) [Example 1-40, (−)-1-(4-fluorophenyl)-3-[(3S*,4R*,5S*)-4-(4-methoxyphenyl)-5-methyl-2-oxopyrrolidin-3-yl]urea] | 1.44
CNc1cc(F)c([C@@H]2CNC(=O)[C@H]2NC(=O)Nc2ccc(F)cc2)c(F)c1 (single isomer, unassigned) [EXAMPLE 28-5, (−)-1-{(3S*,4R*)-4-[2,6-Difluoro-4-(methylamino)phenyl]-2-oxopyrrolidin-3-yl}-3-(4-fluorophenyl) urea] | 1.42
COc1ccc(C2CN(CCO)C(=O)C2NC(=O)Nc2ccc(F)cc2)cc1 (stereo not drawn) [Example 12-15, (+)-1-(4-fluorophenyl)-3-[1-(2-hydroxyethyl)-4-(4-methoxyphenyl)-2-oxopyrrolidin-3-yl]urea] | 0.43
COc1ccc([C@@H]2CNC(=O)[C@H]2NC(=O)Nc2ccc(F)cc2)c(Cl)c1 (relative stereo) [EXAMPLE 1-10, 1-[(3S*,4R*)-4-(2-chloro-4-methoxyphenyl)-2-oxopyrrolidin-3-yl]-3-(4-fluorophenyl)urea] | 3.98
COc1cc(F)c([C@@H]2CN(CC(=O)O)C(=O)[C@H]2NC(=O)Nc2ccc(F)cc2)c(F)c1 (relative stereo) [Example 16-2, (−)-2-{(3S*,4R*)-4-(2,6-difluoro-4-methoxyphenyl)-3-[3-(4-fluorophenyl)ureido]-2-oxopyrrolidin-1-yl}acetic acid] | 0.49
COc1cc(F)c([C@@H]2CN(Cc3ncc(C)o3)C(=O)[C@H]2NC(=O)Nc2ccc(F)cc2)c(F)c1 (single isomer, unassigned) [EXAMPLE 24-17, (−)-1-{(3S*,4R*)-4-(2,6-difluoro-4-methoxyphenyl)-1-[(5-methyloxazol-2-yl)methyl]-2-oxopyrrolidin-3-yl}-3-(4-fluorophenyl)urea] | 0.02
COc1ccc([C@@H]2CNC(=O)[C@H]2NC(=O)Nc2ccc(F)cc2)c(C)c1 (single isomer, unassigned) [EXAMPLE 1-11, (−)-1-(4-fluorophenyl)-3-[(3S*,4R*)-4-(4-methoxy-2-methylphenyl)-2-oxopyrrolidin-3-yl]urea] | 1.59
CO/N=C1\NC[C@@H](c2c(F)cc(OC)cc2F)[C@@H]1NC(=O)Nc1ccc(C)cc1 (single isomer, unassigned) [EXAMPLE 32-8, (−)-1-[(3S*,4R*,Z)-4-(2,6-difluoro-4-methoxyphenyl)-2-(methoxyimino)pyrrolidin-3-yl]-3-(p-tolyl)urea] | 0.44
COc1ccc([C@@H]2CN(CCO)C(=O)C2NC(=O)Nc2ccc(Cl)cc2)cc1 (mixture of isomers) [Example 14-1, (±)-trans-1-(4-Chlorophenyl)-3-[1-(2-hydroxyethyl)-4-(4-methoxyphenyl)-2-oxopyrrolidin-3-yl]urea] | 0.32
COc1cc(F)c([C@@H]2CNC(=O)[C@H]2NC(=O)Nc2ccc(C(F)(F)F)cc2)c(F)c1 (relative stereo) [Example 1-63, (−)-1-[(3S*,4R*)-4-(2,6-difluoro-4-methoxyphenyl)-2-oxopyrrolidin-3-yl]-3-[4-(trifluoromethyl)phenyl]urea] | 0.92
COc1cc(F)c([C@@H]2CN(CCO)C(=O)[C@H]2NC(=O)Nc2ccc(Cl)nc2)c(F)c1 (relative stereo) [Example 24-9, (−)-1-(6-chloropyridin-3-yl)-3-[(3S*,4R*)-4-(2,6-difluoro-4-methoxyphenyl)-1-(2-hydroxyethyl)-2-oxopyrrolidin-3-yl]urea] | 0.88
COc1cc(F)c([C@@H]2CN=C(Nc3ccn(C)n3)[C@H]2NC(=O)Nc2ccc(F)cc2)c(F)c1 (single isomer, unassigned) [EXAMPLE 32-16, (−)-1-{(3R*,4S*)-3-(2,6-difluoro-4-methoxyphenyl)-5-[(1-methyl-1H-pyrazol-3-yl)amino]-3,4-dihydro-2H-pyrrol-4-yl}-3-(4-fluorophenyl)urea] | 0.54
COc1cc(F)c([C@@H]2CNC(=O)[C@H]2NC(=O)Nc2ccc(C3CC3)cc2)c(F)c1 (relative stereo) [Example 1-62, (−)-1-(4-cyclopropylphenyl)-3-[(3S*,4R*)-4-(2,6-difluoro-4-methoxyphenyl)-2-oxopyrrolidin-3-yl]urea] | 1.05
